{
  "source": "patent US8466188B2",
  "about": "“Use of spiro-oxindole compounds as therapeutic agents” (Xenon Pharmaceuticals Inc., priority 2006, dated 2013)",
  "data": [
    {"units": {"melting point": "°C"}, "values": [
      {"compound": "O=C(CN1C(=O)C2(COc3cc(F)c(F)cc32)c2ccccc21)Nc1ccccc1F", "note": "(centres unmarked) [Example 3.9, 2-(5,6-difluoro-2′-oxospiro[1-benzofuran-3,3′-indol]-1′(2′H)-yl)-N-(2-fluorophenyl)acetamide]", "melting point": "97 to 100"},
      {"compound": "O=C(CN1C(=O)C2(COc3ccc(Br)cc32)c2ccccc21)Nc1ccccc1F", "note": "(centres unmarked) [Example 3.10, 2-(5-bromo-2′-oxospiro[1-benzofuran-3,3′-indol]-1′(2′H)-yl)-N-(2-fluorophenyl)acetamide]", "melting point": "100 to 103"},
      {"compound": "O=C(CN1C(=O)C2(COc3cc4c(cc32)CCO4)c2c(Br)cccc21)Nc1ccccc1F", "note": "(centres unmarked) [Example 3.12, 2-(4′-bromo-2′-oxo-5,6-dihydrospiro[benzo[1,2-b:5,4-b′]difuran-3,3′-indol]-1′(2′H)-yl)-N-(2-fluorophenyl)acetamide]", "melting point": "245 to 246"},
      {"compound": "O=C(CN1C(=O)C2(COc3cc4c(cc32)CCO4)c2ccccc21)Nc1ccccc1F", "note": "(centres unmarked) [Example 3.13, N-(2-fluorophenyl)-2-(2′-oxo-5,6-dihydrospiro[benzo[1,2-b:5,4-b′]difuran-3,3′-indol]-1′(2′H)-yl)acetamide]", "melting point": "210 to 212"},
      {"compound": "Cc1ccc(F)c2c1N(CC(=O)Nc1ccccc1F)C(=O)C21COc2cc3c(cc21)CCO3", "note": "(centres unmarked) [Example 3.14, 2-(4′-fluoro-7′-methyl-2′-oxo-5,6-dihydrospiro[benzo[1,2-b:5,4-b′]difuran-3,3′-indol]-1′(2′H)-yl)-N-(2-fluorophenyl)acetamide]", "melting point": "250 to 255"},
      {"compound": "CC1(C)Cc2cc3c(cc2O1)OCC31C(=O)N(CC(=O)Nc2ccccc2F)c2cccc(-c3cncnc3)c21", "note": "(centres unmarked) [Example 4.3, 2-(6,6-dimethyl-2′-oxo-4′-pyrimidin-5-yl-5,6-dihydrospiro[benzo[1,2-b:5,4-b′]difuran-3,3′-indol]-1′(2′H)-yl)-N-(2-fluorophenyl)acetamide]", "melting point": "> 250"},
      {"compound": "O=C1Nc2cccc(-c3ccoc3)c2C12COc1cc3c(cc12)OCO3", "note": "(centres unmarked) [Example 4.4, 4′-(3-furyl)spiro[furo[2,3-f][1,3]benzodioxole-7,3′-indol]-2′(1′H)-one]", "melting point": "270 to 272"},
      {"compound": "O=C1Nc2cccc(-c3cccc4c3oc3ccccc34)c2C12COc1cc3c(cc12)OCO3", "note": "(centres unmarked) [Example 4.5, 4′-dibenzo[b,d]furan-4-ylspiro[furo[2,3-f][1,3]benzodioxole-7,3′-indol]-2′(1′H)-one]", "melting point": "> 230"},
      {"compound": "COc1ccc(-c2cccc3c2C2(COc4cc5c(cc42)OCO5)C(=O)N3Cc2ccc(C(F)(F)F)o2)cn1", "note": "(centres unmarked) [Example 4.6, 4′-(6-methoxypyridin-3-yl)-1′-{[5-(trifluoromethyl)-2-furyl]methyl}spiro[furo[2,3-f][1,3]benzodioxole-7,3′-indol]-2′(1′H)-one]", "melting point": "174 to 176"},
      {"compound": "CN(C)c1ccc(-c2cccc3c2C2(COc4cc5c(cc42)OCO5)C(=O)N3Cc2ccc(C(F)(F)F)o2)cn1", "note": "(centres unmarked) [Example 4.7, 4′-[6-(dimethylamino)pyridin-3-yl]-1′-{[5-(trifluoromethyl)-2-furyl]methyl}spiro[furo[2,3-f][1,3]benzodioxole-7,3′-indol]-2′(1′H)-one]", "melting point": "174 to 176"},
      {"compound": "O=C1Nc2cccc(-c3cncnc3)c2C12COc1cc3c(cc12)OCO3", "note": "(centres unmarked) [Example 4.8, 4′-pyrimidin-5-ylspiro[furo[2,3-f][1,3]benzodioxole-7,3′-indol]-2′(1′H)-one]", "melting point": "185 to 187"},
      {"compound": "O=C1N(Cc2ccccn2)c2cccc(-c3ccoc3)c2C12COc1cc3c(cc12)CCO3", "note": "(centres unmarked) [Example 4.9, 4′-(3-furyl)-1′-(pyridin-2-ylmethyl)-5,6-dihydrospiro[benzo[1,2-b:5,4-b′]difuran-3,3′-indol]-2′(1′H)-one]", "melting point": "195 to 197"},
      {"compound": "O=C1N(Cc2ccccn2)c2cccc(-c3cccnc3)c2C12COc1cc3c(cc12)CCO3", "note": "(centres unmarked) [Example 4.11, 4′-pyridin-3-yl-1′-(pyridin-2-ylmethyl)-5,6-dihydrospiro[benzo[1,2-b:5,4-b′]difuran-3,3′-indol]-2′(1′H)-one]", "melting point": "> 200"},
      {"compound": "O=C1N(Cc2ccc(C(F)(F)F)o2)c2cccc(-c3ccoc3)c2C12COc1cc3c(cc12)CCO3", "note": "(centres unmarked) [Example 4.12, 4′-(3-furyl)-1′-{[5-(trifluoromethyl)-2-furyl]methyl}-5,6-dihydrospiro[benzo[1,2-b:5,4-b′]difuran-3,3′-indol]-2′(1′H)-one]", "melting point": "167 to 169"},
      {"compound": "O=C1N(Cc2ccc(C(F)(F)F)o2)c2cccc(-c3cncnc3)c2C12COc1cc3c(cc12)CCO3", "note": "(centres unmarked) [Example 4.14, 4′-pyrimidin-5-yl-1′-{[5-(trifluoromethyl)-2-furyl]methyl}-5,6-dihydrospiro[benzo[1,2-b:5,4-b′]difuran-3,3′-indol]-2′(1′H)-one]", "melting point": "263 to 266"},
      {"compound": "O=C(CN1C(=O)C2(COc3cc4c(cc32)CCO4)c2c(-c3cncnc3)cccc21)Nc1ccccc1F", "note": "(centres unmarked) [Example 4.20, N-(2-fluorophenyl)-2-(2′-oxo-4′-pyrimidin-5-yl-5,6-dihydrospiro[benzo[1,2-b:5,4-b′]difuran-3,3′-indol]-1′(2′H)-yl)acetamide]", "melting point": "229 to 230"},
      {"compound": "CC(C)(C)OC(=O)N1CCC(CN2C(=O)C3(COc4cc5c(cc43)C(C)(C)CO5)c3ccccc32)CC1", "note": "(centres unmarked) [Example 10.18, tert-butyl 4-[(5,5-dimethyl-2′-oxo-5,6-dihydrospiro[benzo[1,2-b:5,4-b′]difuran-3,3′-indol]-1′(2′H)-yl)methyl]piperidine-1-carboxylate]", "melting point": "65 to 75"},
      {"compound": "CC1(C)COc2cc3c(cc21)C1(CO3)C(=O)N(Cc2ccc(C(F)(F)F)o2)c2ccccc21", "note": "(centres unmarked) [Example 10.21, 5,5-dimethyl-1′-{[5-(trifluoromethyl)-2-furyl]methyl}-5,6-dihydrospiro[benzo[1,2-b:5,4-b′]difuran-3,3′-indol]-2′(1′H)-one]", "melting point": "155 to 160"},
      {"compound": "O=C1N(Cc2ccc(F)cc2Cl)c2ccccc2C12COc1cc3c(cc12)OCO3", "note": "(centres unmarked) [Example 10.30, 1′-(2-chloro-4-fluorobenzyl)spiro[furo[2,3-f][1,3]benzodioxole-7,3′-indol]-2′(1′H)-one]", "melting point": "174 to 175"},
      {"compound": "O=C1N(CCCC2CC2)c2ccccc2C12COc1cc3c(cc12)OCO3", "note": "(centres unmarked) [Example 10.32, 1′-(3-cyclopropylpropyl)spiro[furo[2,3-f][1,3]benzodioxole-7,3′-indol]-2′(1′H)-one]", "melting point": "111 to 113"},
      {"compound": "CCCCN1C(=O)C2(COc3cc4c(cc32)OCO4)c2ccccc21", "note": "(centres unmarked) [Example 10.33, 1′-butylspiro[furo[2,3-f][1,3]benzodioxole-7,3′-indol]-2′(1′H)-one]", "melting point": "119 to 120"},
      {"compound": "Cc1oncc1CN1C(=O)C2(COc3cc4c(cc32)OCO4)c2ccccc21", "note": "(centres unmarked) [Example 10.34, 1′-[(5-methylisoxazol-4-yl)methyl]spiro[furo[2,3-f][1,3]benzodioxole-7,3′indol]-2′(1′H)-one]", "melting point": "159 to 161"},
      {"compound": "O=C1N(CC2CCOCC2)c2ccccc2C12COc1cc3c(cc12)OCO3", "note": "(centres unmarked) [Example 10.35, 1′-(tetrahydro-2H-pyran-4-ylmethyl)spiro[furo[2,3-f][1,3]benzodioxole-7,3′-indol]-2′(1′H)-one]", "melting point": "142 to 144"},
      {"compound": "O=C1N(Cc2ccccc2OC(F)(F)F)c2ccccc2C12COc1cc3c(cc12)OCO3", "note": "(centres unmarked) [Example 10.36, 1′[2-(trifluoromethoxy)benzyl]spiro[furo[2,3-f][1,3]benzodioxole-7,3′-indol]-2′(1′H)-one]", "melting point": "130 to 135"},
      {"compound": "O=C1N(Cc2cccc(OC(F)(F)F)c2)c2ccccc2C12COc1cc3c(cc12)OCO3", "note": "(centres unmarked) [Example 10.37, 1′[3-(trifluoromethoxy)benzyl]spiro[furo[2,3-f][1,3]benzodioxole-7,3′-indol]-2′(1′H)-one]", "melting point": "88 to 91"},
      {"compound": "O=C1N(Cc2ccc(OC(F)(F)F)cc2)c2ccccc2C12COc1cc3c(cc12)OCO3", "note": "(centres unmarked) [Example 10.38, 1′[4-(trifluoromethoxy)benzyl]spiro[furo[2,3-f][1,3]benzodioxole-7,3′-indol]-2′(1′H)-one]", "melting point": "99 to 101"},
      {"compound": "CN1C(=O)C2(COc3cc4c(cc32)OCO4)c2ccccc21", "note": "(centres unmarked) [Example 10.39, 1′-methylspiro[furo[2,3-f][1,3]benzodioxole-7,3′-indol]-2′(1′H)-one]", "melting point": "142 to 144"},
      {"compound": "CCCN1C(=O)C2(COc3cc4c(cc32)OCO4)c2ccccc21", "note": "(centres unmarked) [Example 10.40, 1′-Propylspiro[furo[2,3-f][1,3]benzodioxole-7,3′-indol]-2′(1′H)-one]", "melting point": "158 to 160"},
      {"compound": "CC(C)(C)OC(=O)N1CCC(CN2C(=O)C3(COc4cc5c(cc43)CCO5)c3ccccc32)CC1", "note": "(centres unmarked) [Example 10.43, tert-butyl 4-[(2′-oxo-5,6-dihydrospiro[benzo[1,2-b:5,4-b′]difuran-3,3′-indol]-1′(2′H)-yl)methyl]piperidine 1-carboxylate]", "melting point": "96 to 98"},
      {"compound": "COc1ccc(CN2C(=O)C3(COc4cc5c(cc43)CCO5)c3ccccc32)cc1", "note": "(centres unmarked) [Example 10.46, 1′-(4-methoxybenzyl)-5,6-dihydrospiro[benzo[1,2-b:5,4-b′]difuran-3,3′-indol]-2′(1′H)-one]", "melting point": "120 to 121"},
      {"compound": "O=C1N(Cc2ccc(C(F)(F)F)o2)c2cccc(Br)c2C12COc1cc3c(cc12)CCO3", "note": "(centres unmarked) [Example 10.48, 4′-bromo-1′-{[5-(trifluoromethyl)-2-furyl]methyl}-5,6-dihydrospiro[benzo[1,2-b:5,4-b′]difuran-3,3′-indol]-2′(1′H)-one]", "melting point": "182 to 184"},
      {"compound": "Cc1noc(C)c1CN1C(=O)C2(COc3cc4c(cc32)OCO4)c2ccccc21", "note": "(centres unmarked) [Example 10.51, 1′-[(3,5-dimethylisoxazol-4-yl)methyl]spiro[furo[2,3-f][1,3]benzodioxole-7,3′-indol]-2′(1′H)-one]", "melting point": "165 to 167"},
      {"compound": "O=C1N(Cc2ccco2)c2ccccc2C12COc1cc3c(cc12)OCO3", "note": "(centres unmarked) [Example 10.52, 1′-(2-furylmethyl)spiro[furo[2,3-f][1,3]benzodioxole-7,3′-indol]-2′(1′H)-one]", "melting point": "110 to 112"},
      {"compound": "O=C1N(Cc2ccc(-c3cccc(Cl)c3)o2)c2ccccc2C12COc1cc3c(cc12)OCO3", "note": "(centres unmarked) [Example 10.56, 1′-{[5-(3-chlorophenyl)-2-furyl]methyl}spiro[furo[2,3-f][1,3]benzodioxole-7,3′-indol]-2′(1′H)-one]", "melting point": "205 to 207"},
      {"compound": "O=C1N(CCCCl)c2ccccc2C12COc1cc3c(cc12)OCO3", "note": "(centres unmarked) [Example 10.57, 1′-(3-chloropropyl)spiro[furo[2,3-f][1,3]benzodioxole-7,3′-indol]-2′(1′H)-one]", "melting point": "144 to 146"}
    ]}
  ]
}
